Test results from patent US11879145B2, “Reagents and methods for replication, transcription, and translation in semi-synthetic organisms” (The Scripps Research Institute, priority 2019, dated 2024).
Entries after “also recorded” stand apart in the source; their conditions may differ.

Tests used:
[1] = test system: E. coli strain ML2; test: Cell growth (OD600) / toxicity of unnatural ribonucleoside triphosphates under ribonucleotide screening conditions; format: cell-based; details: for Cell growth / toxicity: YTP at the higher concentration (250 μM); for OD600: after 3 h of protein induction
Method: In vivo Translation Screen of XTPs/YTPs. An overnight culture of the SSO strain ML2 carrying the pGEX-MbPylRS TetR plasmid was grown in 2×YT supplemented with 50 mM potassium phosphate, […] chloramphenicol and 100 μg/mL carbenicillin (herein referred to in this section as “media”), then diluted back to an OD600 of 0.03 in the same media and grown to an OD600 of 0.4 to 0.6. The culture was then chilled with shaking over ice-water for 15 minutes then pelleted by centrifugation at 3,200×g for 10 min. Cells were then resuspended and washed with ice-cold ddH2O twice then resuspended in ice-cold ddH2O to OD600 of 55-65. The electrocompetent cells (50 μL) and 1 ng of Golden Gate assembled plasmid with the UBP within the sfGFP and tRNAPyl genes (see Golden Gate Assembly of Plasmids) were transferred to a pre-chilled electroporation cuvette (0.2-cm-gap), then electroporated (Gene Pulser II; Bio-Rad) according to manufacturer's recommendations (voltage […], capacitor 2.5 μF, resistor 200Ω), and then immediately diluted with 950 μL of media. […] Two-fold dilutions of the recovery were plated onto solid media supplemented with zeocin (50 μg/mL), dCNMOTP (10 μM), dTPT3TP (10 μM), and agar (2% w/v), then grown at 37° C. for 18 h. […] An aliquot (50 μL) was subjected to plasmid isolation using the ZR Plasmid Prep Kit (Zymo Research). Isolated plasmids were then subjected to the streptavidin gel shift assay described below (using primers P3-4 and P5-6, Table S1) to determine UBP retention.
Samples were shielded from light after addition of AzK to prevent photodegradation. These samples were then grown at 37° C. for 20 min before adding 1 mM IPTG and grown at 37° C. for an additional 1 h to induce T7 RNAP and transcription of tRNAPyl and PylRS. From this point on, cells were monitored for growth and fluorescence. Expression of sfGFP was then induced with anhydrotetracycline (100 ng/mL).
Examining the Toxicity of Ribonucleoside Triphosphates. An overnight culture of ML2 was grown in 2×YT media supplemented with 50 mM potassium phosphate and chloramphenicol (5 μg/mL), referred to throughout this section as “media”. This culture was diluted back to an OD600 of 0.01 split into multiple 300 μL cultures, each supplemented with varying concentrations of TPT3TP, TAT1TP, NaMTP, or 5FMTP, along with a no triphosphate control. The cultures were then incubated at 37° C. with shaking at 230 rpm. […] OD600 was then plotted as a function of time for each nucleotide at each concentration to visualize differences in growth rates.

[2] = test system: sfGFP^151(AXC); test: In vivo translation screen of XTPs/YTPs: total sfGFP fluorescence; format: cell-based, E. coli
Method: (§1) In vivo Translation Screen of XTPs/YTPs. An overnight culture of the SSO strain ML2 carrying the pGEX-MbPylRS TetR plasmid was grown in 2×YT supplemented with 50 mM potassium phosphate, […] chloramphenicol and 100 μg/mL carbenicillin (herein referred to in this section as “media”), then diluted back to an OD600 of 0.03 in the same media and grown to an OD600 of 0.4 to 0.6. The culture was then chilled with shaking over ice-water for 15 minutes then pelleted by centrifugation at 3,200×g for 10 min. Cells were then resuspended and washed with ice-cold ddH2O twice then resuspended in ice-cold ddH2O to OD600 of 55-65. The electrocompetent cells (50 μL) and 1 ng of Golden Gate assembled plasmid with the UBP within the sfGFP and tRNAPyl genes (see Golden Gate Assembly of Plasmids) were transferred to a pre-chilled electroporation cuvette (0.2-cm-gap), then electroporated (Gene Pulser II; Bio-Rad) according to manufacturer's recommendations (voltage […], capacitor 2.5 μF, resistor 200Ω), and then immediately diluted with 950 μL of media. An aliquot (40 μL) of the transformation was then diluted five-fold in media supplemented with dCNMOTP (25 μM) and dTPT3TP (10 μM) for a final volume of 200 μL then allowed to recover for 1 h shaking at 37° C. Two-fold dilutions of the recovery were plated onto solid media supplemented with zeocin (50 μg/mL), dCNMOTP (10 μM), dTPT3TP (10 μM), and agar (2% w/v), then grown at 37° C. for 18 h. Single colonies were picked and grown in media (300 μL) supplemented with 50 μg/mL zeocin and provided dCNMOTP (25 μM) and dTPT3TP (10 μM) (herein afterward referred to in this section as “growth media”). The culture was monitored for cell growth (Envision 2103 Multilabel Plate Reader with a 590/20 nm filter) and then collected at an OD600˜1.0. An aliquot (50 μL) was subjected to plasmid isolation using the ZR Plasmid Prep Kit (Zymo Research). Isolated plasmids were then subjected to the streptavidin gel shift assay described below (using primers P3-4 and P5-6, Table S1) to determine UBP retention.
(§2) A colony with excellent UBP retention was then diluted to an OD600˜0.01 in growth media and grown to OD600˜0.4-0.6. This culture was then divided into multiple 300 μL cultures and for the screen of XTP analogs, each was provided with the corresponding XTP (at either 25 μM or 250 μM) or ddH2O for “−XTP” samples, TPT3TP (30 μM), and AzK (10 mM). For the screen of YTP analogs, each 300 μL culture was provided with the corresponding YTP (at either 25 μM or 250 μM) or ddH2O for “−YTP” samples, NaMTP (250 μM), and AzK (10 mM). Samples were shielded from light after addition of AzK to prevent photodegradation. These samples were then grown at 37° C. for 20 min before adding 1 mM IPTG and grown at 37° C. for an additional 1 h to induce T7 RNAP and transcription of tRNAPyl and PylRS. From this point on, cells were monitored for growth and fluorescence. Expression of sfGFP was then induced with anhydrotetracycline (100 ng/mL). After an additional 3 h of growth at 37° C., cells were collected (230 μL for affinity purification of sfGFP), cooled, and then pelleted and stored at −80° C. before protein purification.
An SAR analysis was initiated with NaMTP and the nine XTP analogs. Based on performance in the dXTP screen described above, and to eliminate variable loss at the DNA level as a complicating factor, the unnatural information was encoded with the dCNMO-dTPT3 UBP. Additionally, the E. coli strain ML2, which expresses the nucleoside triphosphate transporter PtNTT2, but has also been genetically engineered for higher fidelity replication of the UBP by deletion of the gene encoding RecA (as is common in cloning strains) and overexpression of DNA Pol II was used. The same plasmid described above in Examples 1A and 1, harboring sfGFP^151(AXC) and tRNA^Pyl(GYT), was used, and to focus the screen to a single unnatural ribonucleotide, the M. mazei Pyl tRNA was transcribed in the presence of 30 μM TPT3TP. […]

[3] = test system: sfGFP^151(AXC); test: Optimization of unnatural ribonucleotide triphosphate concentrations (sfGFP fluorescence and protein shift); format: cell-based, E. coli
Method: Examples 1A, 1B, and 2 identified dCNMO-dTPT3 as a competent UBP for the storage of information, and TAT1TP and NaMTP or 5FMTP as competent ribonucleoside triphosphates for its retrieval. Upon transformation with the same plasmids used above, 10 μM dTPT3TP and 25 μM dCNMOTP were provided in the growth media, which was then also supplemented with TAT1TP at concentrations ranging from 100 μM to 12.5 μM, and either NaMTP or 5FMTP at concentrations ranging from 200 μM to 12.5 μM, all in series of 2-fold dilutions, and after the addition of 1 mM AzK, the cells were induced to express sfGFP. […] In both cases, fluorescence was higher at lower concentrations of NaMTP or 5FMTP (due to increased production of contaminating natural sfGFP, see below). Additionally, cells generally produced higher fluorescence at higher concentrations of TAT1TP. […] Protein production was again quantified via the gel shift assay (FIG. 6C and FIG. 6D). Generally, as the concentration of NaMTP decreased below 200 μM, incrementally lower fidelity of AzK incorporation into sfGFP was observed, while with use of 5FMTP this reduction in fidelity was only observed below a concentration of 50 μM. Clearly lower concentrations of 5FMTP can be used without compromising fidelity. Cells provided with a high concentration of 5FMTP (≥50 µM) produced high protein shifts at all concentrations of TAT1TP explored (100 μM, 50 μM, 25 μM, or 12.5 μM).
Optimization of in vivo Translation Conditions. An overnight culture of the SSO strain ML2 carrying the pGEX-MbPylRS TetR plasmid was grown in 2×YT supplemented with 50 mM potassium phosphate, […] chloramphenicol and 100 μg/mL carbenicillin (herein referred to in this section as “media”), then diluted back to an OD600 of 0.03 in the same media and grown to an OD600 of 0.4-0.6. The culture was then chilled with shaking over ice-water for 15 min then pelleted by centrifugation at 3,200×g for 10 min. Cells were then resuspended and washed with ice-cold ddH2O twice then resuspended in ice-cold ddH2O to an OD600 of 55-65. The electrocompetent cells (50 μL) and ˜1 ng of Golden Gate assembled plasmid with the UBP within the sfGFP and tRNAPyl genes (see Golden Gate Assembly of Plasmids) were transferred to a pre-chilled electroporation cuvette (0.2-cm-gap), then electroporated (Gene Pulser II; Bio-Rad) according to manufacturer's recommendations (voltage […], capacitor 2.5 μF, resistor 200Ω), and then immediately diluted with 950 μL of media. […] The culture was monitored for cell growth (Envision 2103 Multilabel Plate Reader with a 590/20 nm filter) and then collected at an OD600˜1.0. […]

[4] = test system: sfGFP^151(AXC); test: In vivo translation screen of XTPs/YTPs: protein shift (AzK incorporation) by DBCO-TAMRA western blot; format: cell-based, E. coli; details: TPT3TP 30 μM, dCNMO-dTPT3 UBP, strain ML2
Method: as §1, §2
Affinity Purification of sfGFP. Cell pellets collected from translation experiments were resuspended in BugBuster (100 μL 1×, EMD Millipore) and shaken at room temperature for 15 min. […]

O=P(O)(O)OP(=O)(O)OP(=O)(O)OC[C@H]1O[C@@H](n2ccc3ccsc3c2=S)[C@H](O)[C@@H]1O [TPT3TP]
Toxicity ([1]; YTP at lower concentrations (25 μM)): somewhat less toxic | Cell growth / toxicity [1]: significantly reduced cell growth; also recorded: at least slightly toxic | Greater fluorescence than 5SICSTP ([2]; YTP 25 μM): 6 fold | Greater fluorescence than FSICSTP ([2]; YTP 25 μM): 5 fold | Greater fluorescence than SICSTP ([2]; YTP 25 μM): 2 fold | Protein production ([2]; YTP 25 μM): significant quantities of pure protein | sfGFP fluorescence relative to control without YTP ([2]; YTP 250 μM, NaMTP 250 μM): little fluorescence

O=P(O)(O)OP(=O)(O)OP(=O)(O)OC[C@H]1O[C@@H](n2ccc3ccccc3c2=S)[C@H](O)[C@@H]1O [SICSTP]
OD600 ([1]; YTP 25 μM): 1.25 ± 0.10 | OD600 ([1]; YTP 250 μM): 0.90 ± 0.04 | Cell growth / toxicity [1]: at least slightly toxic

COc1cc2ccccc2cc1[C@@H]1O[C@H](COP(=O)(O)OP(=O)(O)OP(=O)(O)O)[C@@H](O)[C@H]1O [NaMTP]
Concentration for combined optimization of protein purity and yield ([3]; NaMTP and TAT1TP pair): 200 µM | XTP concentration below which lower fidelity of AzK incorporation into sfGFP was observed ([3]; with TAT1TP 12.5-100 μM): 200 µM | sfGFP protein gel shift (ncAA incorporation) ([4]; XTP 25 μM): 86% | sfGFP protein gel shift (ncAA incorporation) ([4]; XTP 250 μM): 98%

COc1ccc(F)cc1[C@@H]1O[C@H](COP(=O)(O)OP(=O)(O)OP(=O)(O)O)[C@@H](O)[C@H]1O [Compound 5F2OMeTP]
OD600 ([1]; XTP 25 μM): 1.14 ± 0.05 | OD600 ([1]; XTP 250 μM): 1.16 ± 0.07 | sfGFP protein gel shift (ncAA incorporation) ([4]; XTP 250 μM): 94%
